Assay results reported in patent publication US20260256747A1, “ARYL-TRIAZOLYL AND RELATED GPR84 ANTAGONISTS AND USES THEREOF” (Liminal BioSciences Limited, priority 2022, published 2026).

Target: T1, human GPR84 receptor (Homo sapiens, UniProt Q9NQS5)
T1 construct: host or cells: HEK293 cells, transient transfection
Assay: Gαi biosensor BRET assay in HEK293 cells transfected with GPR84, stimulated with the GPR84 agonist ZQ-16
Assay type: cell-based
Conditions: 200 nmol/L ZQ-16; for inhibition at 10 µM / inhibition at 2 µM: HEK293, single concentration; for inhibition at 10 µM: concentration class F = 10 μM; for inhibition at 2 µM: concentration class A = 2 μM
Description: Background—The following assays can be used for determination of GPR84 activation in living HEK293 cells. The Gαi BRET biosensor (Gagnon et al., 2018; Gales et al., 2006. Nat Struct Mol Biol. 13, 778-86; Saulieres et al., 2012. Nat Chem Biol. 8, 622-30) allows to directly monitor GPR84-mediated activation of Gαi. The Gαi biosensor consists of a Rluc8-tagged Gαi2 subunit, a GFP10-tagged Gγ2 subunit, and an untagged GB1. Agonist stimulation and GPR84 activation triggers a physical separation between the RLuc8-Gαi donor and the GFP10-Gγ2 acceptor, resulting in a decrease in BRET signal whose amplitude is correlated to ligand efficacy (Gales et al., 2006). Moreover, signaling functions of GPCRs are tightly regulated by endocytosis, the targeting of receptors to endosomes and their sorting to lysosomes or recycling to the plasma membrane. The early endosomes (EEs) trafficking assay (Namkung et al., 2016. Nat Commun. 7, 12178) uses Rluc8-tagged GPR84 and Renilla GFP (rGFP) attached to the FYVE domain from human endofin/zinc finger FYVE domain-containing protein 16, which binds phosphatidylinositol 3-phosphate in EEs. Agonist stimulation of GPR84-Rluc8 leads to trafficking of the receptor to EEs, and ensuing increase of the donor concentration relative to the rGFP-FYVE acceptor anchored in the same cellular compartment, and thus results in an increase in BRET signal.
Plasmids—The cDNA clones for human GPR84 receptor, human Gαi2, Gβ1, and Gγ2 were obtained from the cDNA Resource Center (www.cdna.org). GFP10 (F64L, S147P, S202F and H231L variant of Aequorea victoria Green Fluorescent Protein) gBlocks gene fragments (Integrated DNA Technologies, IA) and linker were inserted in frame at the N-terminus of human Gγ2. Rluc8 (A^55T, Cl24A, S130A, K136R, A^143M, M185V, M253L, and S287L variant of the Renilla reniformis luciferase) gBlocks gene fragment was inserted with linkers in frame in between residues 91 and 92 of Gαi2 or at the C-terminus of GPR84. The FYVE domain from human endofin (residues Q739 to K806) attached in frame at the C terminus of a humanized Renilla GFP (rGFP), were synthesized as gBlocks gene fragments.
Bioluminescence Resonance Energy Transfer (BRET) Measurement-HEK293 cells were transfected with GPR84-Rluc8 and rGFP-FYVE for the EEs trafficking biosensor or with GPR84, Gαi2-Rluc8, GFP10-Gγ2, and Gβ1 for the Gαi biosensor. The following day, transiently transfected cells were seeded in 96-well white clear bottom microplates coated with poly-D-lysine and left in culture for 24 hours. Cells were washed once with Tyrode's buffer (140 mmol/L NaCl, 1 mmol/L CaCl2, 2.7 mmol/L KCl, 0.49 mmol/L MgCl2, 0.37 mmol/L NaH2PO4, 5.6 mmol/L glucose, 12 mmol/L NaHCO3, and 25 mmol/L HEPES, pH 7.5) before performing assays in Tyrode's buffer. Test compounds were incubated with cells for 5 (Gai) or 15 (EEs) minutes at 37° C. before addition of 200 nmol/L of the GPR84 agonist ZQ-16 (2-(Hexylthio)-6-hydroxy-4 (3H)-pyrimidinone) for 5 minutes at room temperature (Gai) or 30 minutes at 37° C. (EEs). The Rluc8 substrate coelenterazine 400A (Prolume, Lakeside, AZ) was added at a final concentration of 5 μmol/L and BRET readings were collected using an Infinite M1000 microplate reader (Tecan, Morrisville, NC). BRET2 readings between Rluc8 and GFP10 or rGFP were collected by sequential integration of the signals detected in the 370 to 450 nm (Rluc8) and 510 to 540 nm (GFP10, rGFP) windows. The BRET signal was calculated as the ratio of light emitted by acceptor (GFP10, rGFP) over the light emitted by donor (Rluc8). The values were corrected to net BRET by subtracting the background BRET signal obtained in cells transfected with Rluc8 constructs alone. Ligand-promoted net BRET values were calculated by subtracting vehicle-induced net BRET from ligand-induced net BRET.

T1 sequence (Q9NQS5 whole entry): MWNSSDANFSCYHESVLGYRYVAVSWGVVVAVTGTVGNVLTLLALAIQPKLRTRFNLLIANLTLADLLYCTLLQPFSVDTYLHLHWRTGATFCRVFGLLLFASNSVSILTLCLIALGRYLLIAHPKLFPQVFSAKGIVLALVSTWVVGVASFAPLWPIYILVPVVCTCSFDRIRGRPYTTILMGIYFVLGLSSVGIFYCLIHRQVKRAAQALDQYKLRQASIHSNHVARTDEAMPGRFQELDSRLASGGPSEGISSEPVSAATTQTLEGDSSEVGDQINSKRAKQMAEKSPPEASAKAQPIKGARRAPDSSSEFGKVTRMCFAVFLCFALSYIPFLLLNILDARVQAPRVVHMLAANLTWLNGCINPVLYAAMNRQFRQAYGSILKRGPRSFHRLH

`CN(C)c1cc(N2CC3(COC3)C2)ccc1-c1cn(CC2OCC(C)(C)CO2)cn1` [Compound I-45, 2-(1-((5,5-dimethyl-1,3-dioxan-2-yl)methyl)-1H-imidazol-4-yl)-N,N-dimethyl-5-(2-oxa-6-azaspiro[3.3]heptan-6-yl)aniline] was tested, and the IC50 was 1 to 3 µM and the inhibition at 10 µM was > 75%.
In the case of `COc1ccc(C#Cc2cnn(CC3OCC(C)(C)CO3)n2)cc1` [Compound I-46], the inhibition at 10 µM is reported as ≤ 25%.
In the case of `CN(C)C(=O)Cn1cnc(-c2ccc(N3CC(C)(CO)C3)cc2N(C)C)c1` [Compound I-47], the inhibition at 10 µM is reported as 50 to 75%.
With `Cc1cc(N2CCN(C(C)c3ccccn3)CC2)ccc1-c1cn(CC2OCC3(CC3)CO2)cn1` (centres unmarked) [Compound I-48] the IC50 was ≤ 0.3 µM and the inhibition at 10 µM was > 75%.
In the case of `CC1(C)COC(Cn2cc(-c3ncc(C(F)(F)F)cc3OC3CC3)nn2)OC1` [Compound I-49], the inhibition at 2 µM is reported as 50 to 75%.
For `[2H]C([2H])([2H])N(c1cc(N2CC(C)(CO)C2)ccc1-c1cn(CC2OCC(C)(C)CO2)nn1)C([2H])([2H])[2H]` [Compound I-50], the IC50 was 0.3 to 1 µM.
In the case of `CN(C)C(=O)Cn1cnc(-c2ncc(C#CC3CC3)cc2OC2CC2)c1` [Compound I-51], the inhibition at 10 µM is reported as > 75%.
In the case of `CN(C)c1cc(N2CC(C)(CO)C2)c(F)cc1-c1cn(CC2OCC3(CC3)CO2)cn1` [Compound I-52], the IC50 is reported as ≤ 0.3 µM and the inhibition at 10 µM is reported as > 75%.
In the case of `C(#CC1CC1)c1cnc(-c2cncn2C[C@H]2CCCCO2)c(OC2CC2)c1` [Compound I-53], the inhibition at 10 µM is reported as ≤ 25%.
With `C(#CC1CC1)c1cnc(-c2cn(C[C@H]3CCCCO3)cn2)c(OC2CC2)c1` [Compound I-54] the IC50 was ≤ 0.3 µM and the inhibition at 2 µM was > 75%.
In the case of `[2H]C([2H])([2H])N(c1cc(N2CC(C)(CO)C2)ccc1-c1cn(CC2OCC3(CC3)CO2)nn1)C([2H])([2H])[2H]` [Compound I-55], the IC50 is reported as 0.3 to 1 µM and the inhibition at 10 µM is reported as > 75%.
With `CCc1cc(N2CCN(Cc3ccccn3)CC2)ccc1-c1cn(CC2OCC3(CC3)CO2)cn1` [Compound I-56] the IC50 was ≤ 0.3 µM and the inhibition at 10 µM was > 75%.
`O=C(NC1CC1)c1cnc(-c2cn(CC3OCC4(CC4)CO3)nn2)c(OC2CC2)c1` [Compound I-57] gave an inhibition at 10 µM of 25 to 50%.
For `CC1(C)COC(Cn2cc(Cc3cc(C#CC4CC4)ccc3C(F)(F)F)nn2)OC1` [Compound I-58], the inhibition at 10 µM was > 75%.
For `CN(C(=O)c1cnc(-c2cn(CC3OCC4(CC4)CO3)nn2)c(OC2CC2)c1)C1CC1` [Compound I-59, 6-(1-((5,7-dioxaspiro[2.5]octan-6-yl)methyl)-1H-1,2,3-triazol-4-yl)-5-cyclopropoxy-N-cyclopropyl-N-methylnicotinamide], the inhibition at 10 µM was ≤ 25%.
`CN(C)C(=O)c1cnc(-c2cn(CC3OCC4(CC4)CO3)nn2)c(OC2CC2)c1` [Compound I-61] showed an inhibition at 10 µM of 25 to 50%.
Compound `Cc1cc(N2CCN(Cc3ccccn3)CC2)ccc1-c1cn(CC(=O)N(C)C)cn1` [Compound I-62] has an inhibition at 10 µM of 25 to 50%.
`O=C(O)Cn1cc(-c2ncc(C#CC3CC3)cc2OC2CC2)nn1` [Compound I-63] was tested, and the inhibition at 10 µM was ≤ 25%.
`O=C(Cn1cc(-c2ncc(C#CC3CC3)cc2OC2CC2)nn1)N1CCCC1` [Compound I-64] was tested, and the IC50 was 0.3 to 1 µM and the inhibition at 10 µM was > 75%.
Work on `O=C1OC(c2ccc(C#CC3CC3)cc2)CN1CC1CCCCO1` (centres unmarked) [Compound I-65] yielded an inhibition at 10 µM of 25 to 50%.
In the case of `CNC(=O)c1cnc(-c2cn(CC3OCC4(CC4)CO3)nn2)c(OC2CC2)c1` [Compound I-66], the inhibition at 10 µM is reported as 50 to 75%.
`CNC(=O)Cn1cc(-c2ncc(C#CC3CC3)cc2OC2CC2)nn1` [Compound I-67] gave an inhibition at 10 µM of 25 to 50%.
For `C(#CC1CC1)c1cnc(-c2cn(Cc3cc4ccccc4[nH]3)nn2)c(OC2CC2)c1` [Compound I-70], the inhibition at 10 µM was ≤ 25%.
With `CN(C)C(=O)COc1cnc(-c2cn(CC(=O)N(C)C)nn2)c(OC2CC2)c1` [Compound I-71] the inhibition at 10 µM was ≤ 25%.
With `CN(C)C(=O)COc1cnc(-c2cn(CC3OCC4(CC4)CO3)nn2)c(OC2CC2)c1` [Compound I-72] the inhibition at 10 µM was 25 to 50%.
With `CN(C)C(=O)CNc1cnc(-c2cn(CC3OCC4(CC4)CO3)nn2)c(OC2CC2)c1` [Compound I-73] the inhibition at 10 µM was > 75%.
`Cc1ccc(C#CC2CC2)cc1C(F)(F)c1cn(CC2CCCCO2)nn1` (centres unmarked) [Compound I-99] gave an inhibition at 2 µM of 50 to 75%.
In the case of `Cc1cc(C#CCN2CC(C)(C)C2)cnc1-c1nnn(CC2OCC(C)(C)CO2)n1` [Compound I-111], the IC50 is reported as 1 to 3 µM and the inhibition at 10 µM is reported as > 75%.
For `CC1(C)CN(CC#Cc2cnc(-c3cn(CC4OCC5(CC5)CO4)nn3)c(CC3CC3)c2)C1` [Compound I-118], the IC50 was ≤ 0.3 µM and the inhibition at 2 µM was > 75%.
`CC1(C)COC(Cn2cc(Cc3cc(C#CC4CC4)ccc3Cl)nn2)OC1` [Compound I-136] was tested, and the IC50 was 1 to 3 µM and the inhibition at 10 µM was > 75%.
With `CN(C)c1cc(N2CCN(Cc3ccccn3)CC2)ccc1-c1cn(CC2OCC(C)(C)CO2)cn1` [Compound I-137] the inhibition at 10 µM was ≤ 25%.
For `Cc1cc(N2CCN(Cc3ccccn3)CC2)ccc1-c1cn(CC2OCC3(CC3)CO2)cn1` [Compound I-139], the inhibition at 10 µM was > 75%.
In the case of `CC1(C)COC(Cn2cc(-c3ncc(C#CCN4CC(C)(CO)C4)cc3OC3CC3)nn2)OC1` [Compound I-143], the inhibition at 2 µM is reported as > 75%.
For `CC1(CO)CN(c2ccc(-c3cn(CC4OCC5(CCC5)O4)nn3)c(CC(F)(F)F)c2)C1` (centres unmarked) [Compound I-144], the inhibition at 10 µM was > 75%.
In the case of `CCN(CC)c1cc(N2CC(C)(CO)C2)ccc1-c1cn(CC2OCC3(CC3)CO2)nn1` [Compound I-147], the inhibition at 10 µM is reported as > 75%.
In the case of `CN(c1ccc(C#CC2CC2)cc1)c1cn(CC2OCC(C)(C)CO2)nn1` [Compound I-149], the inhibition at 10 µM is reported as ≤ 25%.
Work on `CN(c1cn(CC2OCC(C)(C)CO2)nn1)c1cc(C#N)ccc1Cl` [Compound I-159] yielded an inhibition at 10 µM of 25 to 50%.
For `CN(c1cccc(C#N)c1)c1cn(CC2OCC(C)(C)CO2)nn1` [Compound I-160], the inhibition at 10 µM was 25 to 50%.
Work on `NC(=O)c1cnc(-c2cn(CC3OCC4(CC4)CO3)nn2)c(OC2CC2)c1` [Compound I-204] yielded an inhibition at 10 µM of 50 to 75%.
In the case of `c1nc(-c2cn(CC3OCC4(CC4)CO3)nn2)c(OC2CC2)cc1-c1nnn[nH]1` [Compound I-205], the IC50 is reported as ≤ 0.3 µM and the inhibition at 2 µM is reported as > 75%.
With `[2H]C([2H])([2H])C1(C([2H])([2H])[2H])COC(Cn2cc(-c3ccc(N4CC(C)(CO)C4)cc3N(C)C)nn2)OC1` [Compound I-206] the inhibition at 10 µM was ≤ 25%.
Work on `c1ccc(CN2CCN(c3cnc(-c4cn(CC5OCC6(CC6)CO5)cn4)c(OC4CC4)c3)CC2)nc1` [Compound I-211] yielded an inhibition at 10 µM of 25 to 50%.
`Clc1cc(N2CCN(Cc3ccccn3)CC2)cnc1-c1cn(CC2OCC3(CC3)CO2)cn1` [Compound I-212] showed an inhibition at 10 µM of 50 to 75%.
`CN(C)C(=O)CCn1cc(-c2ncc(C#CC3CC3)cc2OC2CC2)nn1` [Compound I-213] gave an inhibition at 10 µM of 25 to 50%.
Work on `Clc1cc(N2CCN(Cc3ccccn3)CC2)cnc1-c1cncn1CC1OCC2(CC2)CO1` [Compound I-214] yielded an inhibition at 10 µM of 50 to 75%.
With `Clc1cc(N2CCN(Cc3ccccn3)CC2)cnc1-c1c[nH]cn1` [Compound I-215] the inhibition at 10 µM was ≤ 25%.
In the case of `CN(C)C(=O)Cn1cc(-c2ncc(C#CC3CC3)cc2OC2CC2)cn1` [Compound I-216], the inhibition at 10 µM is reported as ≤ 25%.
`O=C(Cn1cc(-c2ncc(C#CC3CC3)cc2OC2CC2)cn1)N1CCCC1` [Compound I-217] was tested, and the inhibition at 10 µM was 25 to 50%.
